Data from patent publication US20250230154A1, “COMPOUND HAVING SHP2 PROTEIN DEGRADING ACTIVITY, AND MEDICAL USES THEREOF” (UBIX THERAPEUTICS, INC., priority 2021, published 2025).

Molecular target: T1, SHP2 protein (Homo sapiens, UniProt Q06124)
T1 sequence (Q06124 1-593): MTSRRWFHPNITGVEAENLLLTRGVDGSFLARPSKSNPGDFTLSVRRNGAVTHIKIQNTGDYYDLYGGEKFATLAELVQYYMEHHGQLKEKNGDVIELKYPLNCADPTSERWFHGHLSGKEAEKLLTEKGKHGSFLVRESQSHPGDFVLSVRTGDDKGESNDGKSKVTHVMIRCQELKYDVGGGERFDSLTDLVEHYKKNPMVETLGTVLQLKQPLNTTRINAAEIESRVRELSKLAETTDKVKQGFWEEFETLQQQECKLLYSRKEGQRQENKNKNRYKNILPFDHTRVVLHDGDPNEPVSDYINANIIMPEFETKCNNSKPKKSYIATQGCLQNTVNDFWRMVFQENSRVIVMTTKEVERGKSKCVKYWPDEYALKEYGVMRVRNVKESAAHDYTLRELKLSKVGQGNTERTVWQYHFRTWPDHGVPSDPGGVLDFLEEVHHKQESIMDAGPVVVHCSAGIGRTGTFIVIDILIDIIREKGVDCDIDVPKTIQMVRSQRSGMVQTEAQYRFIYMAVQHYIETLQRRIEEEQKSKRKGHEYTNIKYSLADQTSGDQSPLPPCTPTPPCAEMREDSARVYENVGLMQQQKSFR
Assay: Measurement of SHP2 protein degradation in MV-4-11 cells (western blotting)
Format: cell-based
Parameters: endogenous in cells; host or cells: MV-4-11
Conditions: for SHP2 degradation (%) 10 nM / SHP2 degradation (%) 100 nM / SHP2 degradation (%) 1000 nM: MV-4-11 cells, 24 hours; for SHP2 protein degradation activity (in words): comment on Table 4
Procedure, shortened: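 SHP2 protein levels were assessed by western blotting in MV-4-11 cells after a 24 hour compound treatment. Lysates were sonicated, centrifuged, normalized by BCA assay at 562 nm, run on Bis-tris 4-12% gels, transferred to NC membrane, probed with anti-SHPTP2 (70 kDa) and anti-GAPDH (37 kDa) antibodies, and detected on LI-COR Odyssey.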

SMILES	SHP2 degradation (%) 10 nM	SHP2 degradation (%) 100 nM	SHP2 protein degradation activity (in words)	SHP2 degradation (%) 1000 nM
Cc1ncsc1-c1ccc(CNC(=O)[C@@H]2C[C@@H](O)CN2C(=O)[C@@H](NC(=O)C2(F)CC2)C(C)(C)C)c(OC2CC3(CCN(c4ccc(C(=O)Nc5cccc(Sc6cnc(N7CCC(C)(CN)CC7)cn6)c5Cl)nn4)CC3)C2)c1 [Example 88, N-(3-((5-(4-(aminomethyl)-4-methylpiperidin-1-yl)pyrazin-2-yl)thio)-2-chlorophenyl)-6-(2-(2-(((2S,4R)-1-((S)-2-(1-fluorocyclopropane-1-carboxamido)-3,3-dimethylbutanoyl)-4-hydroxypyrrolidine-2-carboxamido)methyl)-5-(4-methylthiazol-5-yl)phenoxy)-7-azaspiro[3.5]nonan-7-yl)pyridazine-3-carboxamide]	16.5%	66.1%		
Cc1ncsc1-c1ccc(CNC(=O)[C@@H]2C[C@@H](O)CN2C(=O)[C@@H](NC(=O)C2(F)CC2)C(C)(C)C)c(OCCN2CCN(C(=O)CC(=O)Nc3cccc(Sc4ncc(N5CCC(C)(N)CC5)nc4N)c3Cl)CC2)c1 [Example 54, (2S,4R)—N-(2-(2-(4-(3-((3-((3-amino-5-(4-amino-4-methylpiperidin-1-yl)pyrazin-2-yl)thio)-2-chlorophenyl)amino)-3-oxopropanoyl)piperazin-1-yl)ethoxy)-4-(4-methylthiazol-5-yl)benzyl)-1-((S)-2-(1-fluorocyclopropane-1-carboxamido)-3,3-dimethylbutanoyl)-4-hydroxypyrrolidine-2-carboxamide]	85.8%	98.3%		
Cc1ncsc1-c1ccc(CNC(=O)[C@@H]2C[C@@H](O)CN2C(=O)[C@@H](NC(=O)C2(F)CC2)C(C)(C)C)c(OCCN2CCN(C(=O)C(C)(C)C(=O)Nc3cccc(Sc4cnc(N5CCC(C)(CN)CC5)cn4)c3Cl)CC2)c1 [Example 59, (2S,4R)—N-(2-(2-(4-(3-((3-((5-(4-(aminomethyl)-4-methylpiperidin-1-yl)pyrazin-2-yl)thio)-2-chlorophenyl)amino)-2,2-dimethyl-3-oxopropanoyl)piperazin-1-yl)ethoxy)-4-(4-methylthiazol-5-yl)benzyl)-1-((S)-2-(1-fluorocyclopropane-1-carboxamido)-3,3-dimethylbutanoyl)-4-hydroxypyrrolidine-2-carboxamide]	−2.0%	3.0%	somewhat decreased	
Cc1ncsc1-c1ccc(CNC(=O)[C@@H]2C[C@@H](O)CN2C(=O)[C@@H](NC(=O)C2(F)CC2)C(C)(C)C)c(OCCC2CCN(C(=O)C3(C(=O)Nc4cccc(Sc5cnc(N6CCC(C)(CN)CC6)cn5)c4Cl)CC3)CC2)c1 [Example 47, (2S,4R)—N-(2-(2-(1-(1-((3-((5-(4-(aminomethyl)-4-methylpiperidin-1-yl)pyrazin-2-yl)thio)-2-chlorophenyl)carbamoyl)cyclopropane-1-carbonyl)piperidin-4-yl)ethoxy)-4-(4-methylthiazol-5-yl)benzyl)-1-((S)-2-(1-fluorocyclopropane-1-carboxamido)-3,3-dimethylbutanoyl)-4-hydroxypyrrolidine-2-carboxamide]	−2.5%	21.1%	somewhat decreased	
Cc1ncsc1-c1ccc(CNC(=O)[C@@H]2C[C@@H](O)CN2C(=O)[C@@H](NC(=O)C2(F)CC2)C(C)(C)C)c(OCCC2CCN(C(=O)CC(=O)Nc3cccc(Sc4ncc(N5CCC(C)(N)CC5)nc4N)c3Cl)CC2)c1 [Example 35, (2S,4R)—N-(2-(2-(1-(3-((3-((3-amino-5-(4-amino-4-methylpiperidin-1-yl)pyrazin-2-yl)thio)-2-chlorophenyl)amino)-3-oxopropanoyl)piperidin-4-yl)ethoxy)-4-(4-methylthiazol-5-yl)benzyl)-1-((S)-2-(1-fluorocyclopropane-1-carboxamido)-3,3-dimethylbutanoyl)-4-hydroxypyrrolidine-2-carboxamide]	74%	93%		93%
Cc1ncsc1-c1ccc(CNC(=O)[C@@H]2C[C@@H](O)CN2C(=O)[C@@H](NC(=O)C2(F)CC2)C(C)(C)C)c(OCCC2CCN(CCC(=O)Nc3cccc(Sc4cnc(N5CCC(C)(CN)CC5)cn4)c3Cl)CC2)c1 [Example 74, (2S,4R)—N-(2-(2-(1-(3-((3-((5-(4-(aminomethyl)-4-methylpiperidin-1-yl)pyrazin-2-yl)thio)-2-chlorophenyl)amino)-3-oxopropyl)piperidin-4-yl)ethoxy)-4-(4-methylthiazol-5-yl)benzyl)-1-((S)-2-(1-fluorocyclopropane-1-carboxamido)-3,3-dimethylbutanoyl)-4-hydroxypyrrolidine-2-carboxamide]	29.0%	80.5%		94.5%
Cc1ncsc1-c1ccc(CNC(=O)[C@@H]2C[C@@H](O)CN2C(=O)[C@@H](NC(=O)C2(F)CC2)C(C)(C)C)c(OCC2CCN(C(=O)CC(=O)Nc3cccc(Sc4cnc(N5CCC(C)(CN)CC5)cn4)c3Cl)CC2)c1 [Example 31, (2S,4R)—N-(2-((1-(3-((3-((5-(4-(aminomethyl)-4-methylpiperidin-1-yl)pyrazin-2-yl)thio)-2-chlorophenyl)amino)-3-oxopropanoyl)piperidin-4-yl)methoxy)-4-(4-methylthiazol-5-yl)benzyl)-1-((S)-2-(1-fluorocyclopropane-1-carboxamido)-3,3-dimethylbutanoyl)-4-hydroxypyrrolidine-2-carboxamide]	76%	97%		97.5%
COC(=O)[C@@H]1CN(C(=O)CC(=O)Nc2cccc(Sc3cnc(N4CCC(C)(CN)CC4)cn3)c2Cl)CCN1CCOc1cc(-c2scnc2C)ccc1CNC(=O)[C@@H]1C[C@@H](O)CN1C(=O)[C@@H](NC(=O)C1(F)CC1)C(C)(C)C [Example 66, (S)-methyl 4-(3-((3-((5-(4-(aminomethyl)-4-methylpiperidin-1-yl)pyrazin-2-yl)thio)-2-chlorophenyl)amino)-3-oxopropanoyl)-1-(2-(2-(((2S,4R)-1-((S)-2-(1-fluorocyclopropane-1-carboxamido)-3,3-dimethylbutanoyl)-4-hydroxypyrrolidine-2-carboxamido)methyl)-5-(4-methylthiazol-5-yl)phenoxy)ethyl)piperazine-2-carboxylate]	79%	98.1%		
Cc1ncsc1-c1ccc(CNC(=O)[C@@H]2C[C@@H](O)CN2C(=O)[C@@H](NC(=O)C2(F)CC2)C(C)(C)C)c(OCCN2CCN(C(=O)CC(=O)Nc3cccc(Sc4cnc(N5CCC(C)(CN)CC5)cn4)c3Cl)CC2)c1 [Example 52, (2S,4R)—N-(2-(2-(4-(3-((3-((5-(4-(aminomethyl)-4-methylpiperidin-1-yl)pyrazin-2-yl)thio)-2-chlorophenyl)amino)-3-oxopropanoyl)piperazin-1-yl)ethoxy)-4-(4-methylthiazol-5-yl)benzyl)-1-((S)-2-(1-fluorocyclopropane-1-carboxamido)-3,3-dimethylbutanoyl)-4-hydroxypyrrolidine-2-carboxamide]	72%	96%		94.5%
CC(=O)N[C@H](C(=O)N1C[C@H](O)C[C@H]1C(=O)NCc1ccc(-c2scnc2C)cc1OCCCN1CCN(C(=O)CC(=O)Nc2cccc(Sc3cnc(N4CCC(C)(CN)CC4)cn3)c2Cl)CC1)C(C)(C)C [Example 61, (2S,4R)-1-((S)-2-acetamido-3,3-dimethylbutanoyl)-N-(2-(3-(4-(3-((3-((5-(4-(aminomethyl)-4-methylpiperidin-1-yl)pyrazin-2-yl)thio)-2-chlorophenyl)amino)-3-oxopropanoyl)piperazin-1-yl)propoxy)-4-(4-methylthiazol-5-yl)benzyl)-4-hydroxypyrrolidine-2-carboxamide]	87.3%	99.4%		
Cc1ncsc1-c1ccc(CNC(=O)[C@@H]2C[C@@H](O)CN2C(=O)[C@@H](NC(=O)C2(F)CC2)C(C)(C)C)c(OCCC2CCN(C(=O)CC(=O)Nc3cccc(Sc4cnc(N5CCC(C)(N)CC5)cn4)c3Cl)CC2)c1 [Example 34, (2S,4R)—N-(2-(2-(1-(3-((3-((5-(4-amino-4-methylpiperidin-1-yl)pyrazin-2-yl)thio)-2-chlorophenyl)amino)-3-oxopropanoyl)piperidin-4-yl)ethoxy)-4-(4-methylthiazol-5-yl)benzyl)-1-((S)-2-(1-fluorocyclopropane-1-carboxamido)-3,3-dimethylbutanoyl)-4-hydroxypyrrolidine-2-carboxamide]	77%	93.5%		94%
